# Test: photoluminescence quantum yield (fraction); solvent given as SMILES
smiles,measurement,setting,value
CN(C)c1ccc(C(=O)Nc2ccc(F)cc2)cc1,photoluminescence quantum yield,in C1CCCCC1,0.0011
same,photoluminescence quantum yield,in C1CCOC1,0.0053
same,photoluminescence quantum yield,in CC#N,0.0104
same,photoluminescence quantum yield,in CCOCC,0.0034
CC(C)(C)c1cc2ccc3cc(C(C)(C)C)cc4c(N(c5ccccc5)c5ccccc5)cc(c1)c2c34,photoluminescence quantum yield,in CCCCCC,0.24
CN(C)c1ccc(/C=C/c2ccccn2)cc1,photoluminescence quantum yield,in C1CCCCC1,0.017
same,photoluminescence quantum yield,in C1CCOC1,0.042
same,photoluminescence quantum yield,in C1COCCO1,0.031
same,photoluminescence quantum yield,in CC#N,0.048
same,photoluminescence quantum yield,in CC(C)O,0.024
same,photoluminescence quantum yield,in CCCCCC,0.016
same,photoluminescence quantum yield,in CCCCCCC,0.017
same,photoluminescence quantum yield,in CCCCO,0.026
same,photoluminescence quantum yield,in CCO,0.032
same,photoluminescence quantum yield,in CCOC(C)=O,0.03
same,photoluminescence quantum yield,in CCOCC,0.022
same,photoluminescence quantum yield,in CN(C)C=O,0.051
same,photoluminescence quantum yield,in CO,0.019
same,photoluminescence quantum yield,in CS(C)=O,0.054
same,photoluminescence quantum yield,in O,0.015
O=C(O)CCCc1ccc2ccc3cccc4ccc1c2c34,photoluminescence quantum yield,in CO,0.68
COc1cc(C=C(C#Cc2ccccc2)C#Cc2ccccc2)c(OC)cc1C=C(C#Cc1ccccc1)C#Cc1ccccc1,photoluminescence quantum yield,in ClC(Cl)Cl,0.34
C/C=C/c1ccc(OC)cc1,photoluminescence quantum yield,in CC#N,0.27
same,photoluminescence quantum yield,in CCCCCC,0.35
Nc1ccc2c(c1)C(=O)c1ccccc1-2,photoluminescence quantum yield,in C1CCCCC1,0.0086
same,photoluminescence quantum yield,in c1ccccc1,0.00099
c1ccc(-c2c3ccc(=[N+]4CCCCC4)cc-3oc3cc(N4CCCCC4)ccc23)cc1,photoluminescence quantum yield,in CCO,0.3
same,photoluminescence quantum yield,in ClCCl,0.89
C[Si](C)(C)c1cccc2ccccc12,photoluminescence quantum yield,in C1CCCCC1,0.3
CC(=O)N(Cc1ccccn1)c1c2ccccc2c2c3c(cccc13)C(=O)N(Cc1ccccn1)C2=O,photoluminescence quantum yield,in C1CCOC1,0.36
same,photoluminescence quantum yield,in CCCCCC,0.59
same,photoluminescence quantum yield,in CCO,0.35
same,photoluminescence quantum yield,in Cc1ccccc1,0.52
same,photoluminescence quantum yield,in ClCCl,0.48
O=S1(=O)C(c2cccs2)=C(c2cccs2)c2ccccc21,photoluminescence quantum yield,in C1CCOC1,0.006
CC(=O)c1ccc2ccc3c(NCCC(=O)NCCCCCCc4nc5c(=O)[nH]c(N)nc5n4[C@H]4C[C@H](O)[C@@H](CO)O4)ccc4ccc1c2c43,photoluminescence quantum yield,in C1CCOC1,0.62
same,photoluminescence quantum yield,in CC#N,0.72
same,photoluminescence quantum yield,in CC(C)O,0.58
same,photoluminescence quantum yield,in CCO,0.49
same,photoluminescence quantum yield,in CN(C)C=O,0.63
same,photoluminescence quantum yield,in CO,0.44
same,photoluminescence quantum yield,in CS(C)=O,0.61
same,photoluminescence quantum yield,in O,0.27
same,photoluminescence quantum yield,in OCC(O)CO,0.38
CC1=CC(C)=[N+]2C1=C(c1ccc(N3CCCCC3)cc1)c1c(C)cc(C)n1[B-]2(F)F,photoluminescence quantum yield,in C1CCOC1,0.008
same,photoluminescence quantum yield,in CC#N,0.005
same,photoluminescence quantum yield,in CC(=O)C(C)(C)C,0.024
same,photoluminescence quantum yield,in CC(C)=O,0.002
same,photoluminescence quantum yield,in CCCCCC,0.384
same,photoluminescence quantum yield,in CCOC(C)=O,0.006
c1ccc(-c2nc(-c3ccccc3)nc(-c3ccc(-n4c5ccccc5c5c6c(ccc54)-c4ccccc4C6(c4ccccc4)c4ccccc4)cc3)n2)cc1,photoluminescence quantum yield,in O=P(c1ccccc1)(c1ccccc1)c1ccccc1Oc1ccccc1P(=O)(c1ccccc1)c1ccccc1,0.979
C(#Cc1ccccc1)C1=Cc2ccc3ccccc3c2NB1c1ccccc1,photoluminescence quantum yield,in C1CCCCC1,0.72
Cc1cc(=O)oc2ccc3ccc(-c4cn(Cc5ccccc5)nn4)cc3c12,photoluminescence quantum yield,in CCO,0.35
CCCCn1c(-c2ccc(-c3nnc(-c4ccc(-c5nc6c7ccccc7c7ccccc7c6n5CCCC)cc4)o3)cc2)nc2c3ccccc3c3ccccc3c21,photoluminescence quantum yield,in ClCCl,0.78
COc1cc(C=O)cc(-c2[nH]c(=O)n3c2-c2ccccc2C3=O)c1O,photoluminescence quantum yield,in CC#N,0.33
same,photoluminescence quantum yield,in CO,0.04
same,photoluminescence quantum yield,in ClCCl,0.93
Oc1ccccc1-c1nc(-c2ccccc2)c2ccccn12,photoluminescence quantum yield,in ClCCl,0.144
CCn1c2sccc2c2c3nsnc3c3c4ccsc4n(CC)c3c21,photoluminescence quantum yield,in C1CCOC1,0.51
same,photoluminescence quantum yield,in CCOC(C)=O,0.47
same,photoluminescence quantum yield,in CN(C)C=O,0.43
same,photoluminescence quantum yield,in Cc1ccccc1,0.45
same,photoluminescence quantum yield,in ClCCl,0.34
Cc1ccc2nc3c(=O)[nH]c(=O)[nH]c3nc2c1C,photoluminescence quantum yield,in CC#N,0.019
CCCCc1ccc2c(c1)c1ccc3cccc4c3c1c1c2c2cccc3ccc5c6cc(CCCC)ccc6c4c1c5c32,photoluminescence quantum yield,in ClCCl,0.31
